Literature values in patent US9937141B2, “Carcinoma diagnosis and treatment, based on ODC1 genotype” (The Arizona Board of Regents on Behalf of the University of …, priority 2009, dated 2018).

What was measured:
prostoglandin E2 (PGE2) = settings: 300 mg/day, one month
tumor putrescine = settings: DFMO infusion, without suppressing peripheral platelet counts
[1] = human, in vivo

SMILES: CC1=C(CC(=O)O)c2cc(F)ccc2/C1=C\c1ccc(S(C)(=O)=O)cc1 [Sulindac sulfone]
- COX-inhibitory activity (COX): lacks COX-inhibitory activity

SMILES: CC(C)Cc1ccc(C(C)C(=O)O)cc1 (stereo not shown) [ibuprofen]
- PGE2 levels in flat mucosa (prostoglandin E2 (PGE2)): significant decrease

SMILES: NCCCC(N)(C(=O)O)C(F)F (racemic) [DFMO, 2-(difluoromethyl)-dl-ornithine]
- decrease in tumor putrescine levels (tumor putrescine): 90%

SMILES: CC1=C(CC(=O)O)c2cc(F)ccc2/C1=C\c1ccc([S+](C)[O-])cc1 (stereo not shown) [Sulindac, (Z)-5-fluoro-2-methyl-1-((4 (methylsulfin-yl)phenyl)methylene) 1H-indene-3-acetic acid]
- Skin rash and pruritus, patients affected [1]: 5%
- mild gastrointestinal effects, patients affected [1]: ~20%
- time to peak plasma levels (fasting patients): about 2 hours
- drug absorbed after oral administration (oral): about 90%
